Entries after “also recorded” stand apart in the source; their conditions may differ. Like-named read-outs stand apart in the source and are kept apart here. Where a SMILES comes first, the peptide text is derived from it. Where no end group is shown, it is not given here. [ ]: non-standard residue; d: D form. pGlu = O=C1CC[C@@H](C(=O)O)N1
Assays:
MrgC11 = target: T1, MrgC11 (Mus musculus, UniProt Q8CIP3); experiment: calcium-mobilization assay (FLEXstation, Fura-2/AM) in HEK-MrgC11 cells; type: cell-based; conditions: for activation of MrgC11 (in words): calcium response
T1 construct: A full-length MrgC11 cDNA was cloned from the newborn DRG cDNA library; expressed in transfected cells
T1 sequence (Q8CIP3 1-322): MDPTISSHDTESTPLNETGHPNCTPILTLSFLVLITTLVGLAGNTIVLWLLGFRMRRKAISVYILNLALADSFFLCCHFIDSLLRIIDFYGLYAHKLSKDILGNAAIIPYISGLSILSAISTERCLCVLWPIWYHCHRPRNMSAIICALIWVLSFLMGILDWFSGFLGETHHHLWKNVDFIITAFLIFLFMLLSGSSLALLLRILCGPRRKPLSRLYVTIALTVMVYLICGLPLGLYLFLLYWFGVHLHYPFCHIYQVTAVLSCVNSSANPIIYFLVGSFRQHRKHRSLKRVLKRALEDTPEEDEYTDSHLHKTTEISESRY
Description: (§1) To address the questions of the ligand selectivity of the MrgC11 receptor, human embryonic kidney (HEK) 293 cells stably expressing either MrgA1 or MrgC11 were established. Neuropeptides were screened to identify ligands and agonists.
(§2) HEK293 cells were transfected with cDNA encoding the MrgAl-GFP, mNPFF2-GFP or MrgC11-GFP in pcDNA3.1/Zio(+) plasmid (Invitrogen) using the FuGENE6 transfection reagent (Roche Molecular Biomolecules). The transfected cells were selected with 400 μg/ml zeocin in DMEM supplemented with 10% FBS. Each cloned cell was further selected for membrane localization of receptor-GFP fusion protiens.
(§3) The selected cells were maintained in the same medium supplemented with 200 μg/ml zeocin. The stable cell lines were designated HEK-MrgA1, HEK-NPFF2 and HEK-MrgC11.
(§4) To identify putative ligands for MrgC11 and MrgA1 receptors, HEK-MrgC11 or HEKMrgA1 stable cell lines were screened in a calcium-mobilization assay using a fluorescence-imaging plate reader (FLEXstation). Briefly, HEK-MrgA1 or HEK-MrgC11 were plated in 96-black-well plates (Corning) and grown to confluence. After incubation with Fura-2/AM for >20 min, cells were washed and equilibrated for 20 min with HBSS (Hanks' balanced salt solution) assay buffer. The fluorescence emission caused by intracellular calcium mobilization elicited by agonists was determined by using a fluorometric imaging plate reader, Flexstation (Molecular Devices). All peptides were from Phoenix Pharmaceuticals (St. Joseph, Mo.), Bachem, American Peptide (Sunnyvale, Calif.), or Sigma.

MrgA1 = target: T2, MrgA1 (Mus musculus, UniProt Q91WW5); experiment: calcium-mobilization assay (FLEXstation, Fura-2/AM) in HEK-MrgA1 cells; type: cell-based
T2 construct: expressed in transfected cells
T2 sequence (Q91WW5 1-304): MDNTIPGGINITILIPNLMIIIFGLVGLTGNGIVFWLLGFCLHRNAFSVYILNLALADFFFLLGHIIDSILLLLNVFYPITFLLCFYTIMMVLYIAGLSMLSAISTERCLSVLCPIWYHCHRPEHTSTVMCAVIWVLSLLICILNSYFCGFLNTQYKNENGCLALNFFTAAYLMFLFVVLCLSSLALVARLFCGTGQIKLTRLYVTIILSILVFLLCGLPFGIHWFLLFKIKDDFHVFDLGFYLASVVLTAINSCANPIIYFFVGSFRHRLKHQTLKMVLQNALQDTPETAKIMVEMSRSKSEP
Description: as §1, §2, §3, §4

[1] = tested on: FLRFa-induced calcium release in HEK-MrgA1; experiment: FLRFa-induced [Ca2+]i response in HEK-MrgA1 with pathway inhibitors; type: cell-based, human; conditions: HEK-MrgA1, 3 μM FLRFa; 10 μM U73122 or U73343 10 min pretreatment; 1 μM TG in 2 mM EGTA
Description: (§5) Cells loaded with Fura-2/AM were stimulated with each agonist and fluorescence was recorded. Graphs represent an average plot of [Ca^2+]i measurements versus time (in s) in a minimum of 8 cells from representative experiments. Individual data points represent images taken at 0.8-s intervals. […] After a 10 minute pretreatment with U73122 and U73343, each agonist was added. FIGS. 2B and E show the extracellular [Ca^2+] dependency of Ca^2+ mobilization. Cells were preincubated for 2 minutes with 2 mM EGTA (open circles) or normal medium containing 1.2 mM calcium (closed circles) and then 3 μM FLRFa or 1 μM γ2-MSH was added. […] In the presence of 2 mM EGRA, TG (1 μM final concentration) was added to deplete internal Ca^2+ stores.
(§6) The calcium source responsible for the initial peak in [Ca^2+]i was determined by depleting internal calcium stores with the application of 1 μM TG (FIGS. 2C and F).
(§7) Heterotrimeric G proteins of the Gαi and Gαq class are involved in the propagation of signals from GPCRs leading to [Ca^2+]i elevation (Guderman et al. Ann. Rev. Pharmacol. Toxicol. 36:429-459 (1996)). To determine whether Gαi/o proteins are involved in the [Ca^2+]i response, we pretreated HEK-MrgA1 or HEK-MrgC11 cells with PTX (100 ng/ml) for 16 h. […] The dose dependency in [Ca^2+]i responses for both receptors were not affected by PTX (FIGS. 4A and D).

[2] = tested on: γ2-MSH-induced calcium release in HEK-MrgC11; experiment: γ2-MSH-induced [Ca2+]i response in HEK-MrgC11 with pathway inhibitors; type: cell-based, human; conditions: HEK-MrgC11, 1 μM γ2-MSH; 10 μM U73122 or U73343 10 min pretreatment; 1 μM TG in 2 mM EGTA
Description: as §5, §6, §7

[3] = Table 2, chirally modified FMRFa peptides, HEK-MrgC11 cells, mean ± SEM, triplicate, read-out: EC50 MrgC11
[4] = Table 2, chirally modified FMRFa peptides, HEK-MrgA1 cells, mean ± SEM, triplicate, read-out: EC50 MrgA1
[5] = Table 1, HEK-MrgC11 cells, FLEXstation assay, means ± SEM, triplicate, Inactive = no activation detected at concentrations up to 10 mM, read-out: EC50 MrgC11
[6] = Table 1, HEK-MrgA1 cells, FLEXstation assay, means ± SEM, triplicate, Inactive = no activation detected at concentrations up to 10 mM
[7] = Table 2, chirally modified FMRFa peptides, HEK-MrgA1 cells, mean ± SEM, triplicate

Compound	EC50 (MrgC11; [5])	EC50 MrgA1 (MrgA1; [6])	EC50 (MrgC11)	also measured
CSCC[C@H](NC(=O)[C@H](N)Cc1ccccc1)C(=O)N[C@@H](CCCNC(=N)N)C(=O)N[C@@H](Cc1ccccc1)C(N)=O [(D)F-M-R-Fa]	–	–	–	EC50 (MrgC11; [3]): 108 ± 1 nM; EC50 (MrgA1; [4]): 882 ± 55 nM
N=C(N)NCCC[C@H](NC(=O)CNC(=O)[C@@H]1CCC(=O)N1)C(=O)N[C@@H](Cc1ccccc1)C(N)=O [AnthoRF-amide] ([pGlu]GRF-NH2)	16 ± 6 nM	Inactive	–	–
CSCC[C@H](NC(=O)[C@H](Cc1ccccc1)NC(=O)CNC(=O)CNC(=O)[C@@H](N)Cc1ccc(O)cc1)C(=O)N[C@@H](CCCNC(=N)N)C(=O)N[C@@H](CCCNC(=N)N)C(=O)N[C@H](C(=O)NCC(=O)N[C@@H](CCCNC(=N)N)C(=O)N1CCC[C@H]1C(=O)N[C@@H](CCC(=O)O)C(=O)N[C@@H](Cc1c[nH]c2ccccc12)C(=O)N[C@@H](Cc1c[nH]c2ccccc12)C(=O)N[C@@H](CCSC)C(=O)N[C@@H](CC(=O)O)C(=O)N[C@@H](Cc1ccc(O)cc1)C(=O)N[C@@H](CCC(N)=O)C(=O)N[C@@H](CCCCN)C(=O)N[C@@H](CCCNC(=N)N)C(=O)N[C@@H](Cc1ccc(O)cc1)C(=O)NCC(=O)O)C(C)C [BAM-22P]	–	–	26 ± 10 nM	EC50 (MrgA1): 2540 nM
CSCC[C@@H](NC(=O)[C@@H](N)Cc1ccccc1)C(=O)N[C@@H](CCCNC(=N)N)C(=O)N[C@@H](Cc1ccccc1)C(N)=O [F-(D)M-R-Fa]	–	–	–	EC50 (MrgC11; [3]): 11 ± 4 nM; EC50 (MrgA1; [4]): 1260 nM
CSCC[C@H](NC(=O)[C@@H](N)Cc1ccccc1)C(=O)N[C@@H](CCCNC(=N)N)C(=O)N[C@H](Cc1ccccc1)C(N)=O [F-M-R-(D)Fa]	–	–	–	EC50 MrgC11, nM (MrgC11; Table 2, chirally modified FMRFa peptides, HEK-MrgC11 cells, mean ± SEM, triplicate): Inactive; EC50 (MrgA1; [4]): 643 ± 80 nM
CC(C)C[C@H](NC(=O)CNC(=O)[C@H](Cc1ccccc1)NC(=O)[C@H](CO)NC(=O)[C@H](CC(N)=O)NC(=O)[C@H](Cc1c[nH]c2ccccc12)NC(=O)[C@H](CC(N)=O)NC(=O)[C@H](Cc1ccc(O)cc1)NC(=O)[C@H](CC(N)=O)NC(=O)[C@@H]1CCCN1C(=O)[C@H](CC(C)C)NC(=O)[C@H](CC(=O)O)NC(=O)[C@@H](N)CCCCN)C(=O)N[C@@H](CCCNC(=N)N)C(=O)N[C@@H](Cc1ccccc1)C(N)=O [Kiss(107-121)]	102 ± 24 nM	Inactive	–	–
CC(C)C[C@H](NC(=O)CNC(=O)[C@H](Cc1ccccc1)NC(=O)[C@H](CO)NC(=O)[C@H](CC(N)=O)NC(=O)[C@H](Cc1c[nH]c2ccccc12)NC(=O)[C@H](CC(N)=O)NC(=O)[C@@H](N)Cc1ccc(O)cc1)C(=O)N[C@@H](CCCNC(=N)N)C(=O)N[C@@H](Cc1ccccc1)C(N)=O [Kiss(112-121)]	50 ± 4 nM	Inactive	–	–
CC(C)C[C@H](NC(=O)[C@@H](N)Cc1ccccc1)C(=O)N[C@@H](Cc1ccccc1)C(=O)N[C@@H](CCC(N)=O)C(=O)N1CCC[C@H]1C(=O)N[C@@H](CCC(N)=O)C(=O)N[C@@H](CCCN=C(N)N)C(=O)N[C@@H](Cc1ccccc1)C(N)=O [NPFF]	–	–	54 ± 5 nM	EC50 (MrgA1): 2150 nM
N=C(N)NCCC[C@H](N)C(=O)N[C@@H](Cc1ccccc1)C(N)=O [R-Fa]	–	–	460 ± 35 nM	EC50 MrgA1, nM (MrgA1; [7]): Inactive; EC50 MrgA1, nM (MrgA1; Table 2, chirally modified FMRFa peptides, HEK-MrgA1 cells, mean ± SEM, triplicate, listed as RFa): not able to activate
N=C(N)NCCC[C@H](N)C(=O)N[C@@H](Cc1ccccc1)C(=O)O [R-F—OH]	–	–	–	EC50 (MrgC11; [3]): 632 ± 124 nM; EC50 MrgA1, nM (MrgA1; [7]): Inactive; EC50 MrgA1, nM (MrgA1; Table 2, chirally modified FMRFa peptides, HEK-MrgA1 cells, mean ± SEM, triplicate, listed as RF-OH): not able to activate
CC(C)C[C@H](NC(=O)[C@H](CC(N)=O)NC(=O)[C@@H]1CCCN1C(=O)[C@@H](N)C(C)C)C(=O)N1CCC[C@H]1C(=O)N[C@@H](CCC(N)=O)C(=O)N[C@@H](CCCNC(=N)N)C(=O)N[C@@H](Cc1ccccc1)C(N)=O [RFRP-3]	113 ± 5 nM	Inactive	–	–
C/C=C(/C)C(=O)O[C@H]1C(C)=C2[C@H]([C@@H]1OC(=O)CCCCCCC)[C@@](C)(OC(C)=O)C[C@H](OC(=O)CCC)[C@@]1(O)[C@H]2OC(=O)[C@@]1(C)O [TG, thapsigargin]	–	–	–	effect on FLRFa-induced calcium response [1]: prevents; also recorded: blocked the response; effect on γ2-MSH-induced calcium response [2]: prevents; also recorded: blocked the response
COc1ccc2c(c1)CC[C@@H]1[C@@H]2CC[C@]2(C)[C@@H](NCCCCCCN3C(=O)C=CC3=O)CC[C@@H]12 [U73122]	–	–	–	effect on FLRFa-induced calcium response [1]: blocked; also recorded: completely inhibited; effect on γ2-MSH-induced calcium response [2]: blocked; also recorded: completely inhibited
CSCC[C@H](NC(=O)[C@@H](NC(=O)[C@@H](N)Cc1ccc(O)cc1)C(C)C)C(=O)NCC(=O)N[C@@H](Cc1c[nH]cn1)C(=O)N[C@@H](Cc1ccccc1)C(=O)N[C@@H](CCCNC(=N)N)C(=O)N[C@@H](Cc1c[nH]c2ccccc12)C(=O)N[C@@H](CC(=O)O)C(=O)N[C@@H](CCCNC(=N)N)C(=O)N[C@@H](Cc1ccccc1)C(N)=O [γ1-MSH]	17 ± 3 nM	Inactive	–	–
AGEGLNSQFWSLAAPQRF-NH2 [NPAF]	–	Inactive	282 ± 30 nM	–
IRPKLKWDNQKRYG [Dynnorphin-14]	–	Inactive	22 ± 1 nM	–
KHEYLRF-NH2 [AF-2]	–	Inactive	130 ± 24 nM	–
MPHSFANLPLRF-NH2 [RFRP-1] [listing 1 of 2 here]	–	Inactive	–	–
MPHSFANLPLRF-NH2 [RFRP-1] [listing 2 of 2 here]	1240 nM	–	–	–
SGQSWRPQGRF-NH2 [ACEP-1]	46 ± 12 nM	Inactive	–	–
TPDINPAWYTGRGIRPVGRF-NH2 [PrRP-20]	144 ± 18 nM	Inactive	–	–
VGRPEWWMDYQKRY-NH2 [BAM-15-amide]	479 ± 14 nM	–	–	EC50 (MrgA1; Table 1, HEK-MrgA1 cells, FLEXstation assay, means ± SEM, triplicate, Inactive = no activation detected at concentrations up to 10 mM, read-out: EC50 MrgA1): 8770 nM
YGGFMRF-NH2 [Met-ENK-RFamide]	–	–	133 ± 20 nM	EC50 (MrgA1): 5250 nM
YGGFMRF-OH [Met-Enk-RF]	–	Inactive	545 ± 19 nM	activation of MrgA1 (in words) (MrgA1; HEK-MrgA1 cells, calcium response): complete loss of activity
YGGFMRRVGRPEWWMDYQKRYGGFL [BAM3200]	–	–	300 ± 124 nM	EC50 (MrgA1): > 10000 nM
α-MSH	–	–	–	activation of MrgC11 (in words) (MrgC11; HEK-MrgC11 cells): not activated
β-MSH	–	–	–	activation of MrgC11 (in words) (MrgC11; HEK-MrgC11 cells): not activated

— patent publication US20040121410A1, “Pain signaling molecules” (priority 2002, published 2004)
